Experiments:
[1] = Bleomycin stability in the Alzet osmotic minipump; conditions: in 0.9% NaCl, 37 C, for at least 6 days (determined for 7 days in saline)
[2] = Text: MATERIALS AND METHODS Mice.-6-8-week-old male DBA/2 mice weighing 20-25 g were purchased from the Jackson Laboratory, Bar Harbor, Maine. They were maintained on normal laboratory chow and acid water ad. lib. Mouse leukaemia.-P388 lymphocytic leu- kaemia was supplied by Dr Daniel Griswold, Southern Research Institute, Birmingham, Alabama, and serially transplanted as ain ascites tumour at weekly intervals ([…] every 7 days in McCoy's 5a medium. Gibco, Grant Island, NY). […] Ill addition to an un- treated control group, 5 animals were implanted with minipumps containing 0.900 NaCl. Seven days after cell injection, the mice of the untreated control and treated groups were killed, femurs isolated, and marrow cells washed out with McCoy's 5a medium. Appro- priate dilutions of the leukaemic femoral marrow cells were injected i.v. into groups of 10 DBA/2 mice. Eight days later, the recipient mice were killed, spleens removed and fixed in Bouin's solution. The number of surface nacroscopic, leukaemic colony-forming units (LCFU-S) were counted with a dissecting microscope, and the fraction of surviving LCFU per femur determined. Pharmacokinetic studies.-On Day 0, 106 P388 ascites cells were injected i.v. into groups of 30 DBA/2 mice. […] For the C.i.p. group, blood samples from at least 3 mice were col- lected in heparinized tubes by heart puncture every day for 6 days. […] At least 3 mice were killed at each sampling time. Blood samples were centrifuged at 2,000 rev/min and 4?C for 10 min and the plasmas separated and immediately stored at -20?C. […] Data analysis-Statistical analysis of the differences betwNeen LCFU dose-response (i.e., drug dose vs fraction of CFU surviving per femur) curves for the two different treat- ments used the analysis of covariance method (Snedecor & Cochran, 1979). […] I. Intravenous administration. Cancer Chemother. Pharmacol., 1, 177. […] II. Intra- cavitary administration. Cancer Chemother. Pharmacol., 2, 127. BAKER, L. H., OPIPARI, M. I., WILSON, H., BOTTOMLEY, R. & COLTMAN, C. A., JR. […] Obstet. Gynecol., 52, 146. BARRANCO, S. C. […] Ed. Carter, Crooke & Umezawa. New York: Academic Press. p. […] Cancer Res., 36, 1418. MELLETT, L. B. (1973) Considerations in design of optimal therapeutic schedules, Pharmacology and the Future of Man. In Problems of Therapy, Vol. 3. Ed. Okita & Acheson. Basel: S. Karger. p. 332. METZLER, C. M. (1969) Technical Report 7292/69/ 7292/005. […] Proc. AACR and ASCO, 20, 202. […] Eds. Carter, Crooke & Umezawa. New York: Academic Press. p. 117. […] Cancer Treat. Rep., 62, 2011. SKIPPER, H. E., SCHABEL, F. M., JR & WILCOX, W. S. (1967) Experimental evaluation of potential anticancer agents. XXI. Scheduling of arabinosyl cytosine to take advantage of its S-phase speci- ficity against leukaemia cells. Cancer Chemother Rep., 51, 125. […]
[3] = test system: P388 leukaemic spleen colony-forming-units(LCFU-S); assay: Mouse spleen-colony assay (P388 leukaemia, femoral marrow LCFU-S); format: in vivo, male DBA/2 mice; conditions: 8 u/kg/day for 6 days (Day 1-6); 10^6 P388 cells i.v. on Day 0; osmotic minipump vs daily i.p. bolus; groups of 5 mice
Text: MATERIALS AND METHODS Mice.-6-8-week-old male DBA/2 mice weighing 20-25 g were purchased from the Jackson Laboratory, Bar Harbor, Maine. They were maintained on normal laboratory chow and acid water ad. lib. Mouse leukaemia.-P388 lymphocytic leu- kaemia was supplied by Dr Daniel Griswold, Southern Research Institute, Birmingham, Alabama, and serially transplanted as ain ascites tumour at weekly intervals ([…] every 7 days in McCoy's 5a medium. Gibco, Grant Island, NY). […] Ill addition to an un- treated control group, 5 animals were implanted with minipumps containing 0.900 NaCl. Seven days after cell injection, the mice of the untreated control and treated groups were killed, femurs isolated, and marrow cells washed out with McCoy's 5a medium. Appro- priate dilutions of the leukaemic femoral marrow cells were injected i.v. into groups of 10 DBA/2 mice. Eight days later, the recipient mice were killed, spleens removed and fixed in Bouin's solution. The number of surface nacroscopic, leukaemic colony-forming units (LCFU-S) were counted with a dissecting microscope, and the fraction of surviving LCFU per femur determined. Pharmacokinetic studies.-On Day 0, 106 P388 ascites cells were injected i.v. into groups of 30 DBA/2 mice. […] For the C.i.p. group, blood samples from at least 3 mice were col- lected in heparinized tubes by heart puncture every day for 6 days. […]

bleomycin
stability inside the osmotic minipump [1]: 100%
period during which plasma concentrations greater than 0.6 mu/ml are maintained ([2]; after continuous i.p. infusion (C.i.p.), 8 u/kg/day): about 6 days
period during which bleomycin plasma concentration remains above 0.6 mu/ml ([2]; after intermittent i.p. bolus (I.i.p.) administration, 8 u/kg/day): about 92 min
constant bleomycin plasma level ([2]; continuous i.p. infusion (osmotic minipump), 8 u/kg/day for 6 days, P388-bearing mice, radioimmunoassay, pooled plasma of groups of 3 mice, daily samples): 0.62 +/- 0.03 mu/ml
peak bleomycin plasma level ([2]; intermittent i.p. bolus, 8 u/kg/day, at 5 min after the dose, Day 5, radioimmunoassay): 32 mu/ml
greater reduction of LCFU-S by continuous i.p. infusion than by intermittent i.p. bolus at identical dose [3]: 0.5 log
